Results reported in US20060067947A1, “Immunotherapeutic for cancer” (Orient Cancer Therapy Co., Ltd., priority 2002, published 2006).

Key:
prostatic cancer = experiment: Efficacy judgment on patients; assay type: in vivo, human; details: Case 2; IRESSA 250 mg/day combined with NITC, after one month
Procedure: (§3) Further, similarly to Example 1, an IL-12 inducer, shark cartilage (Seishin Enterprise Co., Ltd.), and a saccharide (NK, NKT activator) having an α1,3 structure were administered to the patients in each case according to the respective recommended prescriptions.

CD3+CD161+ NKT cell = experiment: NKT cell measurement by flow cytometry; assay type: in vivo, human; details: Case 2; per date of visit
Procedure: Measurement of NKR-P1-bearing NKT cell can be conducted by measuring cell surface antigens (CD3 and CD161) existing specifically on the NKT cell surface. More specifically, peripheral blood lymphocytes are examined with respect to cells with positive CD3 and positive CD161 (CD3+CD161+). That is, CD3 and CD161, NKT cell surface antigens, are measured by the two-color assay through flow cytometry using monoclonal antibody. Here, the term “NKT cell activation” refers to as the CD3+CD161+ NKT cell proportion in lymphocyte being 10% or more and preferably 16% or more. The term “NKT cell activating capability” denotes a capability of increasing the NKT cell proportion to 10% or more and preferably 16% or more, or a capability of further augmenting the NKT cell proportion from a proportion before administration of a certain substance.
(§1) In the examples, using blood obtained from cancer patients, blood cells were discriminated as positive or negative of the cell surface antigens CD3, CD161 and CD8, with each cell proportion measured according to a conventional method by two-color assay using flow cytometry. At this time, for respective monoclonal antibodies to CD3, CD161 and CD8, those manufactured by Coulter or Becton Dickinson were used.

CD3−CD161+ NK cell = experiment: NK cell measurement by flow cytometry; assay type: in vivo, human; details: Case 2; per date of visit
Text: Likewise, the term “(CD3−CD161+)” refers to examination of cells with negative CD3 and positive CD161. This method is useful for NK cell measurement.
as §1

CD8+ perforin+ cells = experiment: CD8+ perforin production cell measurement; assay type: in vivo, human; details: Case 2; per date of visit
Text: Further, the term “CD8+” denotes examination of cells with positive CD8. This method is useful for CTL activation measurement.
as §1
Two among CD3, CD161 and CD8, cell surface antigens, and perforin are measured with respect to peripheral blood lymphocyte according to a conventional method by three-color assay using flow cytometry. More specifically, a fixative is added to sampled blood, thus fixing cells. After addition of membrane permeating solution, anti-perforin antibody (manufactured by Pharmingen) is added for reaction. Further, PRE-Cy5 labeled second antibody (manufactured by DAKO) is added for reaction, followed by addition of anti-CD3-PE (Coulter 6604627) antibody and anti-CD161-FITC (B-D) antibody for reaction, after which measurement is conducted by flow cytometry. In the drawings and tables, the abbreviation “PER” is used.

[1] = system: Th1/Th2 helper T-cells (CD4); experiment: Th1/Th2 cell ratio by flow cytometry; assay type: in vivo, human; details: Case 2; per date of visit
Procedure: The Th1/Th2 cell ratio was determined according to an ordinary method by helper T(Th)-cell line three-color analytical assay using flow cytometry.
First, blood collected from cancer patients was treated for 4 hours at 37° C. with phorbol 12-myristate 13 acetate and ionomycin to stimulate cells in the blood to produce cytokines. Next, Breferdin A was added to stop the production reaction, cell surface marker CD4 was stained using an anti-CD4 antibody CD4-PC5 (Beckman Coulter), the cells were fixed and then subjected to hemolysis using FACS Lysing Solution (Nippon Becton Dickinson Co., Ltd.). Thereafter, cells were permeabilized with FACS Permeabilizing Solution (Nippon Becton Dickinson Co., Ltd.), and intracellular cytokines were stained using anti-IFNγ antibody/anti-IL-4 antibody (Fastimmune IFNγ FITC/IL-4 PE, from Nippon Becton Dickinson Co., Ltd.), and then measured and analysed with a flow cytometer (FACS Calibur, Becton Dickinson).

TNFα = TNFα measurement by ELISA; assay type: in vivo, human; details: Case 2; per date of visit
Procedure: After washing, 10% fetal bovine serum (FBS)-added RPMI-1640 culture medium was added for preparation to provide a cell count of 1×10^6/ml. Phytohemagglutinin (30 μg/ml) (manufactured by Difco) was added to 200 μl of the cell suspension thus obtained, and then the mixture was cultured using a 96 well microplate under 5% CO2 at 37° C. for 24 hours.

IFNγ = IFNγ measurement by EIA; assay type: in vivo, human; details: Case 2; per date of visit
Procedure: (§2) After washing, 10% fetal bovine serum (FBS)-added RPMI-1640 culture medium is added for preparation to provide a cell count of 1×10^6. Phytohemagglutinin (manufactured by Difco) is added to 200 μl of the cell suspension thus obtained to provide a concentration of 20 μg/ml, and then the mixture is cultured using a 96 well microplate under 5% CO2 at 37° C. for 24 hours.

IL-12 = IL-12 measurement by ELISA; assay type: in vivo, human; details: Case 2; per date of visit
Procedure: Phytohemagglutinin (manufactured by Difco) is added to 200 μl of the cell suspension thus obtained to provide a concentration of 20 μg/ml, and then the mixture is cultured using a 96 well microplate under 5% CO2 at 37° C. for 24 hours.

IL-10 = IL-10 measurement; assay type: in vivo, human; details: Case 2; per date of visit
Procedure: as §2

VEGF = experiment: Serum VEGF by ELISA; assay type: in vivo, human; details: per date of visit
Procedure: (Measurement of vascular endothelial growth factor/VEGF, basic fibroblast growth factor/bFGF and neovascularization inhibitor endostatin/endostatin)
Serum concentrations were measured using commercially available kits for each enzyme linked immunosorbent assay (ELISA) ([…] Human VEGF, […] Human bFGF, […] Human Endostatin, from Cytimmune Sciences Inc.).

tumor markers = experiment: Tumor markers in clinical testing; assay type: in vivo, human
Text: A commercially available product was used for each of the markers used in the clinical testing, and measurement values were shown in accordance with the respective recommended methods. All abbreviations shown are in accordance with common methods of presentation.

pulmonary adenocarcinoma [2] = details: IRESSA alone, reported up to now; cited from earlier work
[3] = system: Th1 cytokines (TNFα, IFNγ, IL-12)
Procedure: In this case, a measurement kit purchased from R&D Systems was used. In practice, to each well of a 96-well microplate were added 50 μl of a measuring diluent, Assay Diluent RD1F, and 200 μl of a standard solution or samples prepared by the method for preparing the aforementioned samples for cytokine measurement, after which the samples were allowed to stand still at room temperature for 2 hours for reaction. Thereafter, 200 μl of horseradish peroxidase-labeled anti-IL12 antibody was added to the solution of each well, and the wells were then allowed to stand still at room temperature for 2 hours. After removing the reaction solution from each well and washing three times, 200 μl of chromophore solution was added to each well, the wells were allowed to stand still at room temperature for 20 minutes, and 50 μl of enzyme reaction stopping solution was then added to each well. The absorbance of each sample was measured at 450 nm with Emax (from Wako Pure Chemical Industries, Ltd.) employing 550 nm as a control. The amount of IL-12 is represented in pg/ml.
Measurement of IFNγ was conducted by enzyme immunoassay (EIA) using the IFNγ EASIA kit available from BioSource Europe SA. […]

[4] = system: non-small-cell lung cancer, prostatic cancer and the like; details: cited from earlier work
pulmonary adenocarcinoma [5] = experiment: Efficacy judgment on patients (CR, PR, LNC, SNC, PD)
Procedure: as §3

[6] = Case 1, IRESSA added to NITC, after one and a half months
[7] = Case 3, IRESSA with NITC, approximately 1 month
[8] = IRESSA alone, reported clinical results

COc1cc2ncnc(Nc3ccc(F)c(Cl)c3)c2cc1OCCCN1CCOCC1 [IRESSA]
multiple bone metastasis (prostatic cancer): complete remission | CD3+ CD161+ (16%) (CD3+CD161+ NKT cell): 17.0% | CD3− CD161+ (11%) (CD3−CD161+ NK cell): 12.3% | CD8+ PER+ (14%) (CD8+ perforin+ cells): 7.2% | Ratio of TH1/TH2 (CD4) (7 or more) [1]: 2.7 | TNF α (1000 pg/ml) (TNFα): 3420 pg/mL | IFN γ (10 IU/ml) (IFNγ): 46.2 IU/ml | IL-12 (7.8 pg/ml) (IL-12): 72.4 pg/mL | IL-10 (IL-10): 154 pg/mL | VEGF (VEGF; Case 1): 320 pg/mL | VEGF (VEGF; Case 2): 342 pg/mL | various tumor markers (tumor markers; [6]): normalized | CA15-3 (30 U/ml) (tumor markers; Case 1, per date of visit): 26 U/ml | CA19-9 (37 U/ml) (tumor markers; Case 1, per date of visit): 32 U/ml | CEA (5.0 ng/ml) (tumor markers; Case 1, per date of visit): 4.5 ng/mL | NCC-ST-439 (7.0 U/ml) (tumor markers; Case 1, per date of visit): 6.7 U/ml | SPAN-1 (30 U/ml) (tumor markers; Case 1, per date of visit): 16 U/ml | Sielyl LEX-1 (38 U/ml) (tumor markers; Case 1, per date of visit): 36 U/ml | PSA value (tumor markers; Case 2, IRESSA combined with NITC, after one month, normalized): 4.0 ng/mL | 1CTP (4.5 ng/ml) (tumor markers; Case 2, per date of visit): 2.5 ng/mL | CA19-9 (37 U/ml) (tumor markers; Case 2, per date of visit): 27 U/ml | Gamma-seminoprotein (4.0 ng/ml) (tumor markers; Case 2, per date of visit): 4.0 ng/mL | PA (RIA) (4.0 ng/ml) (tumor markers; Case 2, per date of visit): 4.0 ng/mL | PAP (EIA) (3.0 ng/ml) (tumor markers; Case 2, per date of visit): 1.4 ng/mL | tumor marker CEA (tumor markers; Case 3, IRESSA with NITC, approximately 1 month, from 256 ng/ml prior to the treatment): 172 ng/mL | SLX-1 (tumor markers; Case 3, IRESSA with NITC, approximately 1 month, from 480 U/ml prior to the treatment): 140 U/ml | proportion of effective cases (pulmonary adenocarcinoma [2]): around 20% | TNFα, IFNγ, and IL-12 [3, 6]: activated at levels exceeding standard values | induced production of TNFα, IFNγ, and IL-12 [3, 7]: increased | period to reach complete remission ([4]; IRESSA alone, extremely rare cases): ≥ 4 months | CR (complete remission) found [4, 8]: almost no CR | PR (partial remission) cases [4, 8]: 10 to 20% | cessation of proliferation (NC) ([4]; treatment by IRESSA): about 50% | reduction (PR) in cancer cells ([4]; treatment by IRESSA): about 20% | carcinomatous pleural fluid and primary lung cancer (pulmonary adenocarcinoma [5]; Case 1, IRESSA 250 mg per day added to NITC, after one and a half months): completely disappeared | bone metastasis to right hip joint, cervical vertebrae and thoracic vertebrae (pulmonary adenocarcinoma [5]; [6]): cured | miliary lung metastasis (pulmonary adenocarcinoma [5]; [7]): almost disappeared | multiple costal metastasis (pulmonary adenocarcinoma [5]; [7]): disappeared | primary focus in the right lung (pulmonary adenocarcinoma [5]; [7]): reduced by half
